# Reference: publication PMC6844378, “Structure activity relationship studies on Amb639752: toward the identification of a common pharmacophoric structure for DGKα inhibitors” (Journal of Enzyme Inhibition and Medicinal Chemistry, 2019)
# Where two headings read alike, the source gives them in different places.
# Experiments:
# [1] = system: T cells from XLP-1 patients; set-up: method as in PMID 26764158; conditions: pre-treatment with inhibitor; cited from earlier work
# DGK isoforms = system: DGK isoforms; set-up: method as in PMID 10718334, PMID 23949095; conditions: cited from earlier work
# [2] = set-up: method as in PMID 26420856; conditions: mice, rapid clearance; cited from earlier work
# 5HT2A = system: 5HT2A; set-up: method as in PMID 27974147; conditions: antagonistic activity on 5-HT2 receptors; cited from earlier work
# XLP-1 model = conditions: cited from earlier work
# DGKα [3] = molecular target: T1, DGKα (Homo sapiens, UniProt P23743); assay: DGK assay on OST-DGKα enriched MDCK homogenates; assay type: biochemical; set-up: expressed in transfected cells; host or cells: MDCK cells (vector-infected, doxycycline-induced), crude homogenate; conditions: for remaining activity at 100 µM: percentage of residual DGKα activity compared to DMSO control, OST-DGKα overexpressing cell lysates, saturating DAG and ATP, read-out: Residue activity at 100 µM
# T1 sequence (P23743 whole entry): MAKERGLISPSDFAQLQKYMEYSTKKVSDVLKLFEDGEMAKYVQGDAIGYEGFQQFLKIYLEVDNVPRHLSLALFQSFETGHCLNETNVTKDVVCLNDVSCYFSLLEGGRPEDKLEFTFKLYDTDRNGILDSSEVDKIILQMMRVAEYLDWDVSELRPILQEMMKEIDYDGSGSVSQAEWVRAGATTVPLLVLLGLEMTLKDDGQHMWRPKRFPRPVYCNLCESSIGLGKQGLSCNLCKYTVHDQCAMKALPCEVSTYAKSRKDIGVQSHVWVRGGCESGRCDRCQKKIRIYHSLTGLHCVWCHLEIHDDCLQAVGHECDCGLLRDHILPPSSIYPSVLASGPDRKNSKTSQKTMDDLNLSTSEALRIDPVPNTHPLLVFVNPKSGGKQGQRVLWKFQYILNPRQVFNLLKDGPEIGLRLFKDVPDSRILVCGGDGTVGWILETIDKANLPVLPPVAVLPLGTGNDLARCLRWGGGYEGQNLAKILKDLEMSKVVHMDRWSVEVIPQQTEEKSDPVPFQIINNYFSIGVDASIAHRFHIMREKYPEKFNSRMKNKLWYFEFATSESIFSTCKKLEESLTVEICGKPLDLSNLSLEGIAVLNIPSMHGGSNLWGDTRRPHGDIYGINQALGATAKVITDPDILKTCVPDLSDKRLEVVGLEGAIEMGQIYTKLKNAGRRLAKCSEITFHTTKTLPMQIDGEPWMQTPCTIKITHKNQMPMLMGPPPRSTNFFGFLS
# Experimental: Madin-Darby canine kidney (MDCK) cells stably expressing One Strep Tag DGKα (OST-DGKα) were prepared by infecting MDCK cells with a vector expressing an inducible OST tagged DGKα constructs. MDCK cells infected with empty vector were used as controls. MDCK cells were cultured in MEM (minimal essential medium) with 5% FBS (foetal bovine serum) and 1% antibiotic–antimycotic solution. Routinely, cells were splitted every 3–4 days with trypsin–EDTA 0.25% in standard 100 mm dishes.
# Large cultures of MDCK cells for enzyme preparation were done by plating 5 × 10^6 cells in 245 mm^2 dishes. Once they reached nearly 70% confluence, cells were treated with doxycycline (1 µg/mL, two days). […] Cells were collected with a rubber scraper, homogenised by passing them through a 29 G-needle syringe 20 times and stored in aliquots at –80 °C. Presence of OST-DGKα was confirmed by western blotting and enzyme assay, transduced DGKα has an activity >100 folds the endogenous DGK.
# Essentionally, the same procedure was followed as reported previously in Velnati et al.[9] In brief, DGK activity was assayed by measuring initial velocities (5 min at 27 °C) in presence of saturating substrate concentrations. Reaction conditions: 0.9 µg/µL 1,2-dioleoyl-sn-glycerol, 5 mM ATP, 0.01 µCi/µL [γ^32P]-ATP, 1 mM sodium orthovanadate, 10 mM MgCl2, 1.2 mM EGTA in 7.5 mM Hepes pH 8[12]. Reaction mixture is assembled mixing enzyme (24.5 µL of homogenate), 100× inhibitor or DMSO (0.5 µL), 5× ATP solution (10 µL of 25 mM ATP, 0.05 µCi/µL [γ^32P]-ATP (Perkin-Elmer, Milan, Italy), 5 mM sodium orthovanadate, 50 mM MgCl2), and 3.3× DAG solution (15 µL of 3 µg/µL 1,2-dioleoyl-sn-glycerol resuspended by sonication in 4 mM EGTA in 25 mM Hepes pH 8). The reaction was stopped after 5 min by adding 200 µL of freshly prepared 1 M HCl and lipid was extracted by adding 200 µL of CH3OH:CHCl3 1:1 solution and vortexing for 1 min. The two phases were separated by centrifugation (12,000 RCF for 2 min). Twenty-five microlitres of the lower organic phase was spotted in small drops on silica TLC plates. TLC was run 10 cm and dried before radioactive signals were detected by GS-250 molecular imager and was quantified by quantity one (Bio-Rad, Hercules, CA) software assuring the absence of saturated spots.
# Percentage residual activity was calculated as follows: (OST-DGKα homogenate with inhibitor – vector homogenate)/(OST-DGKα homogenate with DMSO – vector homogenate)×100.
# Data for the screen on OST-DGKα homogenates are the mean of duplicates. The compounds showing inhibitory activity in this assay were tested >4 times and the mean ± SEM is reported.
# To calculate IC50 values of active inhibitors, the inhibitor activity was measured at least three times at 0.1, 1.0, 10.0, and 100.0 µM concentration. Data were analysed using [inhibitor] vs. normalised response parameters with least square [ordinary] curve fitting method in GraphPad PRISM 8.0 software (GraphPad Software, La Jolla, CA) mentioning 95% confidence interval and IC50 values always greater than 0.0. […] In all the experiments, the data were normalised with the controls.
# Each inhibitor was tested in duplicate at least once, and DGKα activity was expressed as percentage of residual DGKα activity compared to DMSO control in the same assay. Assay uses OST-DGKα overexpressing cell lysates in presence of saturating exogenous DAG and ATP. We considered R59022 (commercially available) and the lead compound Amb63975230 as our reference molecules.
# To measure the inhibitor potency, we determined the IC50 values for the compounds that resulted active when tested at 100 µM by measuring the residual OST-DGKα activity over a dose range of inhibitor concentrations (0.1 µM, 1.0 µM, 10.0 µM, and 100.0 µM).
# DGKα [4] = molecular target: T1, DGKα; set-up: expressed in transfected cells; host or cells: MDCK cells (vector-infected, doxycycline-induced), crude homogenate; method as in PMID 30611057; conditions: in our assay system; cited from earlier work
# serotonin receptors [5] = assay: Superoxide anion production: serotonin effect on PMA-induced oxidative burst in monocytes; assay type: cell-based; conditions: drugs 10 µM, 1 h; serotonin 1 µM; PMA 1 µM 30 min; human monocytes
# Experimental: Human monocytes were isolated from healthy anonymous human buffy coats (provided by the Transfusion Service of Ospedale Maggiore della Carità, Novara, Italy) by the standard technique of dextran sedimentation and Histopaque (density = 1.077 g cm^3, Sigma-Aldrich, Milano, Italy) gradient centrifugation (400×g, 30 min, room temperature) and recovered by fine suction at the interface, as described previously. Purified monocytes populations were obtained by adhesion (90 min, 37 °C, 5% CO2) in serum-free RPMI 1640 medium (Sigma-Aldrich, Milano, Italy) supplemented with 2 mM glutamine and antibiotics. Cell viability (trypan blue dye exclusion) was usually >98%.
# All the experiments were performed in triplicate using cells isolated from each single donor.
# Monocytes (250,000 cells/well) were treated for 1 h with the indicated drugs (10 µM) with or without serotonin (1 µM). Then, cells were stimulated with phorbol 12-myristate 13-acetate (PMA; Sigma-Aldrich, Milano, Italy) 1 µM for 30 min. PMA is a well-known stimulus that induces a strong and significant respiratory burst via PKC activation. Superoxide anion production was then evaluated by the superoxide dismutase (SOD)-sensitive cytochrome C (CytC) reduction assay and expressed as nmoles CytC reduced/10^6 cells/30 min, using an extinction coefficient of 21.1 mM. To avoid interference with spectrophotometrical recordings, cells were incubated with RPMI 1640 without phenol red, antibiotics, and FBS.
# To this purpose, we measured the effect of serotonin on PMA-induced oxidative burst in human monocytes. As previously shown, 1 µM serotonin reverses the oxidative burst to control values.
# Figure 8. […] Results are expressed as n moles of reduced cytochrome C/10^6 cells. Data are means ± SEM of 10 independent experiments performed in triplicate.
# SAP-deficient T cells = assay: RICD assay in SAP silenced T cells; assay type: cell-based, human; conditions: 10 µM, 30 min pre-treatment; OKT3 10 ng/mL, 24 h; SAP siRNA
# Experimental: PBL were isolated from healthy anonymous human donors by Ficoll-Paque PLUS (GE Healthcare, Chicago, IL) density gradient centrifugation, washed, and resuspended at 2 × 10^6 cell/mL in RPMI-GlutaMAX containing 10% heat inactivated FCS, 2 mM glutamine, and 100 U/mL of penicillin and streptomycin. T cells were activated with 1 µg/mL anti-CD3 (UCHT1) and anti-CD28 (clone CD28.2) antibodies. After three days, activated T cells were washed and cultured in medium additionated of 100 IU/mL rhIL-2 (Peprotech, Rocky Hill, NJ) at 1.2 × 10^6 cells/mL for ≥7 days by changing media for every 2–3 days.
# Activated human PBLs were transfected with 200 pmol of siRNA oligonucleotides specific for the target protein (Stealth Select siRNA; Life Technologies, Carlsbad, CA) or a non-specific control oligo (Life Technologies, Carlsbad, CA). Transient transfections were performed using Amaxa nucleofector kits for human T cells (Lonza, Basel, Switzerland) and the Amaxa Nucleofector II or 4D systems (programmes T-20 or EI-115). Cells were cultured in IL-2 (100 IU/mL) for four days to allow target gene knockdown. Knockdown efficiency was periodically evaluated by Western blotting.
# To test restimulation induced cell death, activated T cells (10^5 cells/well) were plated in triplicate in 96-well round-bottom plate and treated with anti-CD3 (clone OKT3) (10 ng/mL) in RPMI-GlutaMAX supplemented with 100 IU/mL rhIL-2 for 24 h. In these assays, inhibitors (10 µM) were added 30 min before the restimulation with OKT3. 24 h after treatment, cells were stained with 20 ng/mL propidium iodide and collected for a constant time of 30 s per sample on Attune Nxt Flow Cytometer (Thermo Fisher Scientific, Waltham, MA). Cell death is expressed as % cell loss and calculated as: % cell loss=(1−(number of viable cells in sample/number of viable cells in control)×100)
# Results were expressed as mean ± standard error of the mean (SEM). We always compared controls and SAP silenced lymphocytes from the same donors as there is a large individual variability in RICD sensitivity.
# To evaluate inhibitor efficacy in physiological context, we modelled XLP-1 by silencing SAP in primary peripheral blood T lymphocytes (PBLs) and restimulating them with anti-CD3 antibody (OKT3 10 ng/mL, 24 h). We pre-treated the cells with the indicated inhibitors for 30 min at a concentration of 10 µM[8].
# Figure 9. DGKα inhibitors partially restores apoptosis in SAP deficient lymphocytes. […] After 4 days, the cells were restimulated with CD3 agonist OKT3 (10 ng/mL) in presence of respective inhibitor. Vehicle (DMSO) was used as control. Twenty-four hours later, the % of cell loss was evaluated by PI staining. Data are the mean ± SEM of nine independent experiments performed in triplicate.
# dopaminergic receptors = molecular target: dopaminergic receptors; set-up: method as in PMID 2860558; conditions: cited from earlier work
# serotonin receptors [6] = conditions: read-out: IC50 as serotonin antagonist; cited from earlier work
# [7] = set-up: method as in PMID 27974147; conditions: in human; cited from earlier work
effect on serotonin action on PMA-induced oxidative burst (serotonin receptors [5]),Structure (SMILES),rescue of defective RICD in T cells from XLP-1 patients [1],DGK isoforms targeted (DGK isoforms),t1/2 [2],IC50 (5HT2A),effect in an in vivo model of XLP-1 (XLP-1 model),inhibition at 100 µM (DGKα [3]; 100 µM),remaining activity at 100 µM (DGKα [3]; 100 µM),"IC50 (DGKα [3]; residual OST-DGKα activity at 0.1, 1.0, 10.0 and 100.0 µM)",IC50 (DGKα [4]),rescue of RICD (apoptosis) in SAP-deficient T cells (SAP-deficient T cells),IC50 (dopaminergic receptors),IC50 (serotonin receptors [6]),t1/2 [7]
–,Cc1nc2sccn2c(=O)c1CCN1CCC(=C(c2ccccc2)c2ccc(F)cc2)CC1 [Compound R59022],rescued,type III and V (ε e θ),~2 h,0.0022 µM,beneficial effects,73%,27%,15.2 ± 5.8 µM,–,–,–,–,–
–,"O=c1c2ccccc2[nH]c(=S)n1CCN1CCC(=C(c2ccc(F)cc2)c2ccc(F)cc2)CC1 [Compound R59949, 3-[2-(4-[bis-(4-fluorophenyl)methylene]-1-piperidinyl)ethyl]-2,3-dihydro-2-thioxo-4(1h)quinazolinone]",rescued,"type I and II (γ, δ e κ)",~2 h,0.0092 µM,–,–,28%,–,11 µM,–,–,–,–
impaired serotonin action,"O=C(c1ccc(F)cc1)C1CCN(CCn2c(=O)[nH]c3ccccc3c2=O)CC1 [ketanserin, reference compound]",–,–,–,–,–,–,–,–,–,inactive,–,–,–
impaired serotonin action,Cc1nc2sccn2c(=O)c1CCN1CCC(=C(c2ccc(F)cc2)c2ccc(F)cc2)CC1 [ritanserin],–,–,–,–,–,–,–,–,17 µM,–,0.069 µM,0.0009 µM,40 h
